Assay results from PubChem BioAssay (NCI).
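These data come from cells grown in 96-well plates and exposed to compound for 48 hours at five concentrations. TGI marks complete inhibition of growth.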 Where a SMILES comes first, the peptide text is derived from it. The star is where a group is joined. Cbz = O=C(OCc1ccccc1)*; OBn = c1ccc(CO*)cc1

How the values were obtained:
Experiment in all cases: NCI-60 cell line screen, 48 h
786-0 renal = system: 786-0 renal
ACHN renal = system: ACHN renal
HOP-62 NSCLC = system: HOP-62 NSCLC
NCI/ADR-RES ovarian = system: NCI/ADR-RES ovarian
UACC-257 melanoma = system: UACC-257 melanoma
IGROV1 ovarian = system: IGROV1 ovarian
MDA-MB-435 = system: MDA-MB-435
HOP-92 NSCLC = system: HOP-92 NSCLC
MDA-MB-231 breast = system: MDA-MB-231 breast
CCRF-CEM leukemia = system: CCRF-CEM leukemia
OVCAR-5 ovarian = system: OVCAR-5 ovarian
SW-620 colon = system: SW-620 colon
A549 NSCLC = system: A549 NSCLC
OVCAR-4 ovarian = system: OVCAR-4 ovarian
NCI-H23 lung = system: NCI-H23 lung
SR leukemia = system: SR leukemia
MOLT-4 leukemia = system: MOLT-4 leukemia
SK-MEL-2 melanoma = system: SK-MEL-2 melanoma
SK-MEL-28 melanoma = system: SK-MEL-28 melanoma
M14 melanoma = system: M14 melanoma
TK-10 renal = system: TK-10 renal
UO-31 renal = system: UO-31 renal
SF-539 CNS = system: SF-539 CNS
MCF7 breast = system: MCF7 breast
SNB-75 CNS = system: SNB-75 CNS
SF-268 CNS = system: SF-268 CNS
HT29 colon = system: HT29 colon
U251 CNS = system: U251 CNS
EKVX NSCLC = system: EKVX NSCLC
HCT-116 colon = system: HCT-116 colon
K-562 leukemia = system: K-562 leukemia
BT-549 breast = system: BT-549 breast
UACC-62 melanoma = system: UACC-62 melanoma
SN12C renal = system: SN12C renal
KM12 colon = system: KM12 colon
OVCAR-8 ovarian = system: OVCAR-8 ovarian
PC-3 prostate = system: PC-3 prostate
SK-MEL-5 melanoma = system: SK-MEL-5 melanoma
COLO 205 colon = system: COLO 205 colon
HCC-2998 colon = system: HCC-2998 colon
RXF 393 renal = system: RXF 393 renal
SF-295 CNS = system: SF-295 CNS
SNB-19 CNS = system: SNB-19 CNS
OVCAR-3 ovarian = system: OVCAR-3 ovarian
HCT-15 colon = system: HCT-15 colon
LOX IMVI melanoma = system: LOX IMVI melanoma
HS 578T breast = system: HS 578T breast
NCI-H522 lung = system: NCI-H522 lung
SK-OV-3 ovarian = system: SK-OV-3 ovarian
DU-145 prostate = system: DU-145 prostate
MDA-N = system: MDA-N
RPMI-8226 leukemia = system: RPMI-8226 leukemia
A498 renal = system: A498 renal
T-47D breast = system: T-47D breast
NCI-H460 lung = system: NCI-H460 lung
MALME-3M melanoma = system: MALME-3M melanoma
NCI-H226 lung = system: NCI-H226 lung
HL-60(TB) leukemia = system: HL-60(TB) leukemia

Q: Which results are given for `O=c1[nH]nc(-c2ccccc2)n1/N=C/c1c(O)ccc2ccccc12`?
A: TGI (786-0 renal): > 100 µM; TGI (ACHN renal): > 100 µM; TGI (HOP-62 NSCLC): > 100 µM; TGI (NCI/ADR-RES ovarian): > 100 µM; TGI (UACC-257 melanoma): > 100 µM; TGI (IGROV1 ovarian): > 100 µM; TGI (MDA-MB-435): > 100 µM; TGI (HOP-92 NSCLC): > 100 µM; TGI (MDA-MB-231 breast): > 100 µM; TGI (CCRF-CEM leukemia): > 100 µM; TGI (OVCAR-5 ovarian): > 100 µM; TGI (SW-620 colon): > 100 µM; TGI (A549 NSCLC): > 100 µM; TGI (OVCAR-4 ovarian): 45.7 µM; TGI (NCI-H23 lung): > 100 µM; TGI (SR leukemia): > 100 µM; TGI (MOLT-4 leukemia): > 100 µM; TGI (SK-MEL-2 melanoma): > 100 µM; TGI (SK-MEL-28 melanoma): > 100 µM; TGI (M14 melanoma): > 100 µM; TGI (TK-10 renal): > 100 µM; TGI (UO-31 renal): > 100 µM; TGI (SF-539 CNS): > 100 µM; TGI (MCF7 breast): > 100 µM; TGI (SNB-75 CNS): 93.6 µM; TGI (SF-268 CNS): > 100 µM; TGI (HT29 colon): > 100 µM; TGI (U251 CNS): 86.4 µM; TGI (EKVX NSCLC): > 100 µM; TGI (HCT-116 colon): > 100 µM; TGI (K-562 leukemia): > 100 µM; TGI (BT-549 breast): > 100 µM; TGI (UACC-62 melanoma): > 100 µM; TGI (SN12C renal): > 100 µM; TGI (KM12 colon): > 100 µM; TGI (OVCAR-8 ovarian): > 100 µM; TGI (PC-3 prostate): > 100 µM; TGI (SK-MEL-5 melanoma): > 100 µM; TGI (COLO 205 colon): > 100 µM; TGI (HCC-2998 colon): > 100 µM; TGI (RXF 393 renal): 85.2 µM; TGI (SF-295 CNS): 82.4 µM; TGI (SNB-19 CNS): 85.4 µM; TGI (OVCAR-3 ovarian): 43.2 µM; TGI (HCT-15 colon): > 100 µM; TGI (LOX IMVI melanoma): > 100 µM; TGI (HS 578T breast): 50.4 µM; TGI (NCI-H522 lung): > 100 µM; TGI (SK-OV-3 ovarian): 68.4 µM; TGI (DU-145 prostate): > 100 µM; TGI (MDA-N): > 100 µM; TGI (RPMI-8226 leukemia): > 100 µM

Q: Which TGI (786-0 renal) does the source give for `COC(=O)C(Cc1ccc(O)cc1)NC(=O)C(CC(=O)OCc1ccccc1)NC(=O)OCc1ccccc1` (configuration not stated) (Cbz-Asp(OBn)-Tyr-OMe; configuration not given here) here?
A: 32.1 µM

Q: And the TGI (ACHN renal)?
A: 34.8 µM

Q: What about the TGI (HOP-62 NSCLC) of the same molecule?
A: 34.6 µM

Q: And the TGI (UACC-257 melanoma)?
A: 45.5 µM

Q: And the TGI (IGROV1 ovarian)?
A: 31.1 µM

Q: And the TGI (HOP-92 NSCLC)?
A: > 100 µM

Q: What about the TGI (MDA-MB-231 breast) of the same molecule?
A: 37.5 µM

Q: And the TGI (CCRF-CEM leukemia)?
A: > 100 µM

Q: And the TGI (OVCAR-5 ovarian)?
A: 43.2 µM

Q: And the TGI (SW-620 colon)?
A: 44.8 µM

Q: And the TGI (A549 NSCLC)?
A: 37 µM

Q: And the TGI (A498 renal)?
A: 62.4 µM

Q: What about the TGI (NCI-H23 lung) of the same molecule?
A: 66.1 µM

Q: What about the TGI (SR leukemia) of the same molecule?
A: 66.3 µM

Q: And the TGI (MOLT-4 leukemia)?
A: 61.5 µM

Q: What about the TGI (SK-MEL-2 melanoma) of the same molecule?
A: 34.8 µM

Q: What about the TGI (SK-MEL-28 melanoma) of the same molecule?
A: 31.3 µM

Q: And the TGI (M14 melanoma)?
A: 44.4 µM

Q: And the TGI (T-47D breast)?
A: 40 µM

Q: What about the TGI (TK-10 renal) of the same molecule?
A: 33.5 µM

Q: And the TGI (UO-31 renal)?
A: 49 µM

Q: What about the TGI (SNB-75 CNS) of the same molecule?
A: 32.6 µM

Q: What about the TGI (HT29 colon) of the same molecule?
A: 32.2 µM

Q: And the TGI (NCI-H460 lung)?
A: 25.9 µM

Q: What about the TGI (MALME-3M melanoma) of the same molecule?
A: > 100 µM

Q: And the TGI (U251 CNS)?
A: 35 µM

Q: And the TGI (EKVX NSCLC)?
A: 46.7 µM

Q: What about the TGI (HCT-116 colon) of the same molecule?
A: 35.1 µM

Q: What about the TGI (K-562 leukemia) of the same molecule?
A: > 100 µM

Q: What about the TGI (BT-549 breast) of the same molecule?
A: 37.4 µM

Q: And the TGI (SN12C renal)?
A: 39.3 µM

Q: And the TGI (NCI-H226 lung)?
A: 43.2 µM

Q: What about the TGI (KM12 colon) of the same molecule?
A: 39.5 µM

Q: What about the TGI (OVCAR-8 ovarian) of the same molecule?
A: 35.6 µM

Q: What about the TGI (PC-3 prostate) of the same molecule?
A: 31.6 µM

Q: What about the TGI (SK-MEL-5 melanoma) of the same molecule?
A: 34.1 µM

Q: What about the TGI (COLO 205 colon) of the same molecule?
A: 39.4 µM

Q: And the TGI (HCC-2998 colon)?
A: 31.5 µM

Q: And the TGI (RXF 393 renal)?
A: 29.5 µM

Q: What about the TGI (SNB-19 CNS) of the same molecule?
A: 34.1 µM

Q: And the TGI (HL-60(TB) leukemia)?
A: 52.7 µM

Q: And the TGI (HCT-15 colon)?
A: 33.7 µM

Q: And the TGI (HS 578T breast)?
A: 69.6 µM

Q: What about the TGI (MDA-N) of the same molecule?
A: 35.7 µM

Q: What about the TGI (RPMI-8226 leukemia) of the same molecule?
A: 49.8 µM
